According to patent US4415574A, “Soluble N2 substituted derivatives of 2,4-diamino 5-benzyl pyrimidine, process for their preparation and medicaments containing them” (S. A. Panmedica, priority 1981, dated 1983):
Where two headings read alike, the source gives them in different places.

Columns and labels:
[1] = test system: BACIL PUMILUS; test: Inhibiting minimum concentration (I.M.C.), activity relative to trimethoprime, MULLER HINTON BACIL PUMILUS MEDIUM; type: cell-based; conditions: for % activity with respect to the base: ratio of I.M.C. to trimethoprime; for % activity with respect to the base corrected by molecular weight: ratio to trimethoprime
Experimental: (§1) The antibacterial activity of the derivatives according to the invention were tested in vitro by determining the inhibiting minimum concentrations (I.M.C.) on different germs.

[2] = test system: COLI; test: Inhibiting minimum concentration (I.M.C.), activity relative to trimethoprime, MULLER HINTON COLI MEDIUM 4; type: cell-based; conditions: for % activity with respect to the base: ratio of I.M.C. to trimethoprime; for % activity to the base corrected by molecular weight: ratio to trimethoprime
Experimental: as §1

[3] = test system: COLI; test: Inhibiting minimum concentration (I.M.C.), activity relative to trimethoprime, OXOIDE COLI MEDIUM 4; type: cell-based; conditions: for % activity with respect to the base: ratio of I.M.C. to trimethoprime; for % activity with respect to the base corrected by molecular weight: ratio to trimethoprime
Experimental: as §1

[4] = in vivo; conditions: mouse
[5] = Solubility in water / pH of aqueous solutions; type: physicochemical; conditions: pH value
[6] = test system: dehydrofolate-reductase; conditions: cited from earlier work
[7] = test system: bacteria; conditions: Gram-positive cocci, Gram-negative cocci and Gram negative bacilli; cited from earlier work

Structure (SMILES)	% activity with respect to the base [1] [%]	% activity with respect to the base corrected by molecular weight [1] [%]	% activity with respect to the base [2] [%]	% activity to the base corrected by molecular weight [2] [%]	% activity with respect to the base [3] [%]	% activity with respect to the base corrected by molecular weight [3] [%]	LD50 ([4]; iv, read-out: LD 50 I.V.) [mg/kg]	LD50 ([4]; po, read-out: LD 50 by mouth) [mg/kg]	pH at which the derivative is insoluble [5]	interference with dehydrofolate-reductase (words, prior art) [6]	antibacterial activity (words, prior art) [7]
COc1ccccc1C(Nc1ncc(Cc2cc(OC)c(OC)c(OC)c2)c(N)n1)S(=O)(=O)O (stereo not drawn) [Example 15, N2 (2-Methoxy Phenyl) Methane Sulfonic Acid of 2,4-Diamino 5-(3,4,5-Trimethoxy Benzyl) Pyrimidine]	60	106	47	73	64	107	1000	> 12000	–	–	–
COc1cc(Cc2cnc(NC(c3ccco3)S(=O)(=O)O)nc2N)cc(OC)c1OC (stereo not drawn) [Example 19]	49.5	80	69.4	112	58.4	95	900	> 12500	–	–	–
COc1cc(Cc2cnc(NC(c3ccccn3)S(=O)(=O)O)nc2N)cc(OC)c1OC (stereo not drawn) [Example 22, N2 2-Pyridyl Methane Sulfonic Acid of 5-(3,4,5-Trimethoxy Benzyl) 2,4-Diamino Pyrimidine]	–	–	–	–	–	–	–	–	5.6	–	–
CCOc1cc(C(Nc2ncc(Cc3cc(OC)c(OC)c(OC)c3)c(N)n2)S(=O)(=O)O)ccc1O (stereo not drawn) [Example 24f, N2 (3-Ethoxy 4-Hydroxy) Phenyl Methane Sulfonic Acid of 5-(3,4,5-Trimethoxy Benzyl) 2,4-Diamino Pyrimidine]	31.8	73	40.3	92	27.4	63	1000	> 12000	–	–	–
COc1cc(Cc2cnc(NC(c3ccccc3O)S(=O)(=O)O)nc2N)cc(OC)c1OC (stereo not drawn) [Example 25e, N2 (2-HYDROXY) PHENYL METHANE SULFONIC ACID OF 5-(3,4,5-TRIMETHOXY BENZYL) 2,4-DIAMINO PYRIMIDINE]	75.8	154	45.8	93	36.6	74	–	–	–	–	–
COc1cc(C(Nc2ncc(Cc3cc(OC)c(OC)c(OC)c3)c(N)n2)S(=O)(=O)O)ccc1O (stereo not drawn) [Example 21, N2 (4-Hydroxy 3-Methoxy) Phenyl Methane Sulfonic Acid of 2,4-Diamino 5-(3,4,5-Trimethoxy Benzyl) Pyrimidine]	34.6	63	43.3	79	49.8	90	–	–	–	–	–
COc1cc(Cc2cnc(NC(c3cccc(Cl)c3)S(=O)(=O)O)nc2N)cc(OC)c1OC (stereo not drawn) [Example 10, N2 (3-Chloro Phenyl) Methane Sulfonic Acid of 2,4-Diamino 5-(3,4,5-Trimethoxy Benzyl) Pyrimidine]	10.4	18	11.6	20	14.1	25	–	–	–	–	–
COc1cc(Cc2cnc(NC(c3ccc4c(c3)OCO4)S(=O)(=O)O)nc2N)cc(OC)c1OC (stereo not drawn) [Example 18, N2 (3,4-Dioxy Methylene Phenyl) Methane Sulfonic Acid of 2,4-Diamino 5-(3,4,5-Trimethoxy Benzyl) Pyrimidine]	21.4	38	14.85	26	27	48	–	> 12000	–	–	–
COc1cc(Cc2cnc(N)nc2N)cc(OC)c1OC [Trimethoprime, 5-(3,4,5-trimethoxybenzyl) 2,4diamino pyrimidine]	–	–	–	–	–	–	–	–	–	interferes with dehydrofolate-reductase	very wide-spectrum antibacterial agent
COc1cc(Cc2cnc(NC(c3ccc(Cl)cc3)S(=O)(=O)O)nc2N)cc(OC)c1OC (stereo not drawn) [Example 11, N2 (4-Chloro Phenyl) Methane Sulfonic Acid of 2,4-Diamino 5-(3,4,5-Trimethoxy Benzyl) Pyrimidine]	23	41	17.6	31	25.6	45	–	–	–	–	–
COc1cc(Cc2cnc(NC(c3ccccc3O)S(=O)(=O)O)nc2N)cc(OC)c1OC (stereo not drawn) [Example 25f, N2 (2-HYDROXY) PHENYL METHANE SULFONIC ACID OF 5-(3,4,5-TRIMETHOXY BENZYL) 2,4-DIAMINO PYRIMIDINE]	73.1	159	55.4	120	38.3	84	–	–	–	–	–
COc1cc(Cc2cnc(NCS(=O)(=O)O)nc2N)cc(OC)c1OC [Example 1, N2 Methane Sulfonic Acid of 2,4-Diamino 5-(3,4,5-TrimethoxyBenzyl) Pyrimidine]	0.1	–	0.3	0.4	17.1	24	–	–	–	–	–
